In patent publication US7205306B2, “Substituted pyrazinones, pyridines and pyrimidines as corticotropin releasing factor ligands” (Bristol-Myers Squibb Pharma Company, priority 2001, dated 2007):
Where “and” joins values, the source holds several entries; their conditions need not be identical. Equal values may be shown once. Where a name gives a salt, the structure may show the parent alone.

Structure (SMILES) | melting point
CCC(CC)n1cc(Cl)nc(N2CCc3cc(OC)cc(C)c32)c1=O (as salt: hydrochloride) [Example 431, 5-Chloro-1-(1-ethylpropyl)-3-(5-methoxy-7-methyl-2,3-dihydro-1H-indol-1-yl)-2(1H)-pyrazinone] | 164 to 165 °C
CCC(C)n1cc(Cl)nc(N2CCc3cc(OC)cc(Br)c32)c1=O (stereo not shown) (as salt: hydrochloride) [Example 502, 3-(7-Bromo-5-methoxy-2,3-dihydro-1H-indol-1-yl)-5-chloro-1-(1-methylpropyl)-2(1H)-pyrazinone] | 155 to 157 °C
CCC(C)n1cc(Cl)nc(N2CCc3cc(OC)cc(C)c32)c1=O (stereo not shown) (as salt: hydrochloride) [Example 503, 5-Chloro-3-(5-methoxy-7-methyl-2,3-dihydro-1H-indol-1-yl)-1-(1-methylpropyl)-2(1H)-pyrazinone] | 176 to 178 °C
CCC(CC)n1cc(Br)nc(N2CCc3cc(OC)cc(Br)c32)c1=O (as salt: hydrochloride) [Example 505, 5-Bromo-3-(7-bromo-5-methoxy-2,3-dihydro-1H-indol-1-yl)-1-(1-ethylpropyl)-2(1H)-pyrazinone] | 133 to 135 °C
CC[C@@H](C1CC1)n1cc(Cl)nc(N2CCc3cc(OC)cc(Cl)c32)c1=O (as salt: hydrochloride) [Example 514, 5-Chloro-3-(7-chloro-5-methoxy-2,3-dihydro-1H-indol-1-yl)-1-[(1S)-1-cyclopropylpropyl]-2(1H)-pyrazinone] | 128 to 130 °C
CC[C@@H](C1CC1)n1cc(Cl)nc(N2CCc3cc(OC)cc(Br)c32)c1=O (as salt: hydrochloride) [Example 515, 3-(7-Bromo-5-methoxy-2,3-dihydro-1H-indol-1-yl)-5-chloro-1-[(1S)-1-cyclopropylpropyl]-2(1H)-pyrazinone] | 138 to 140 °C
CC[C@H](COC)n1cc(Br)nc(N2CCc3cc(OC)cc(Br)c32)c1=O (as salt: hydrochloride) [Example 525, 5-Bromo-3-(7-bromo-5-methoxy-2,3-dihydro-1H-indol-1-yl)-1-[(1R)-1-(methoxymethyl)propyl]-2(1H)-pyrazinone] | 122 to 123 °C
CC[C@H](COC)n1cc(Br)nc(N2CCc3cc(OC)cc(C)c32)c1=O (as salt: hydrochloride) [Example 526, 5-Bromo-3-(5-methoxy-7-methyl-2,3-dihydro-1H-indol-1-yl)-1-[(1R)-1-(methoxymethyl)propyl]-2(1H)-pyrazinone] | 116 to 118 °C
CC[C@@H](COC)n1cc(Br)nc(N2CCc3cc(OC)cc(C)c32)c1=O (as salt: hydrochloride) [Example 549, 5-Bromo-3-(5-methoxy-7-methyl-2,3-dihydro-1H-indol-1-yl)-1-[(1S)-1-(methoxymethyl)propyl]-2(1H)-pyrazinone] | 115 to 117 °C
CCC(CC)Nc1nc(C)nc(N2CCc3cc(Cl)cc(Cl)c32)c1Br [Example 3, 5-bromo-4-(5,7-dichloro-2,3-dihydro-1H-indol-1-yl)-6-(1-ethylpropylamino)-2-methylpyrimidine] | 136 to 138 °C
CCC(CC)Nc1nc(C)nc(N2CCc3cc(Cl)cc(Cl)c32)c1C=O [Example 6, 4-(5,7-dichloro-2,3-dihydro-1H-indol-1-yl)-6-(1-ethylpropylamino)-5-formyl-2-methylpyrimidine] | 182 to 184 °C
CCC(CC)Nc1nc(C)nc(N2CCc3cc(Cl)cc(Cl)c32)c1CO [Example 7, 4-(5,7-dichloro-2,3-dihydro-1H-indol-1-yl)-6-(1-ethylpropylamino)-5-hydroxymethyl-2-methylpyrimidine] | 150 to 152 °C
CCC(CC)Nc1nc(C)nc(N2CCc3cc(OC)cc(Cl)c32)c1C#N [Example 59, 4-(7-chloro-5-methoxy-2,3-dihydro-1H-indol-1-yl)-5-cyano-6-(1-ethylpropylamino)-2-methylpyrimidine] | 189 to 190 °C and 192 to 194 °C
CCC(CC)Nc1nc(C)nc(N2CCc3cc(OC)cc(Cl)c32)c1C=O [Example 60, 4-(7-chloro-5-methoxy-2,3-dihydro-1H-indol-1-yl)-6-(1-ethylpropylamino)-5-formyl-2-methylpyrimidine] | 178 to 179 °C
CCC(COC)Nc1nc(C)nc(N2CCc3cc(OC)cc(Cl)c32)c1I (stereo not shown) [Example 74, 4-(7-chloro-5-methoxy-2,3-dihydro-1H-indol-1-yl)-5-iodo-6-[1-(1-methoxymethyl)propylamino]-2-methylpyrimidine] | 150 to 152 °C
CCC(COC)Nc1nc(C)nc(N2CCc3cc(OC)cc(Cl)c32)c1C#N (stereo not shown) [Example 75, 4-(7-chloro-5-methoxy-2,3-dihydro-1H-indol-1-yl)-5-cyano-6-[1-(1-methoxymethyl)propylamino]-2-methylpyrimidine] | 182 to 183 °C
CCC(C)Nc1cc(N2CCc3cc(OC)cc(Cl)c32)nc(C)n1 (stereo not shown) [Example 310, 4-(7-chloro-5-methoxy-2,3-dihydro-1H-indol-1-yl)-6-(1-methylpropylamino)-2-methylpyrimidine] | 102 to 105 °C

Further lines, results first:

melting point | Structure (SMILES)
130 to 132 °C | CCC(CC)n1cc(Cl)nc(N2CCc3cc(OC)cc(Br)c32)c1=O (as salt: hydrochloride) [Example 441, 3-(7-Bromo-5-methoxy-2,3-dihydro-1H-indol-1-yl)-5-chloro-1-(1-ethylpropyl)-2(1H)-pyrazinone]
138 to 140 °C | CCC(CC)n1cc(C)nc(N2CCc3cc(OC)cc(C)c32)c1=O (as salt: hydrochloride) [Example 481, 3-(5-Methoxy-7-methyl-2,3-dihydro-1H-indol-1-yl)-1-(1-ethylpropyl)-5-methyl-2(1H)-pyrazinone]
143 to 145 °C | CCC(C)n1cc(Cl)nc(N2CCc3cc(OC)cc(Cl)c32)c1=O (stereo not shown) (as salt: hydrochloride) [Example 501, 5-Chloro-3-(7-chloro-5-methoxy-2,3-dihydro-1H-indol-1-yl)-1-(1-methylpropyl)-2(1H)-pyrazinone]
152 to 154 °C | CCC(CC)n1cc(Br)nc(N2CCc3cc(OC)cc(C)c32)c1=O (as salt: hydrochloride) [Example 506, 5-Bromo-1-(1-ethylpropyl)-3-(5-methoxy-7-methyl-2,3-dihydro-1H-indol-1-yl)-2(1H)-pyrazinone]
118 to 120 °C | CC[C@H](C1CC1)n1cc(Cl)nc(N2CCc3cc(OC)cc(Cl)c32)c1=O (as salt: hydrochloride) [Example 508, 5-Chloro-3-(7-chloro-5-methoxy-2,3-dihydro-1H-indol-1-yl)-1-[(1R)-1-cyclopropylpropyl]-2(1H)-pyrazinone]
138 to 140 °C | CC[C@H](C1CC1)n1cc(Cl)nc(N2CCc3cc(OC)cc(Br)c32)c1=O (as salt: hydrochloride) [Example 509, 3-(7-Bromo-5-methoxy-2,3-dihydro-1H-indol-1-yl)-5-chloro-1-[(1R)-1-cyclopropylpropyl]-2(1H)-pyrazinone]
160 to 162 °C | CC[C@H](C1CC1)n1cc(Cl)nc(N2CCc3cc(OC)cc(C)c32)c1=O (as salt: hydrochloride) [Example 510, 5-Chloro-1-[(1R)-1-cyclopropylpropyl]-3-(5-methoxy-7-methyl-2,3-dihydro-1H-indol-1-yl)-2(1H)-pyrazinone]
156 to 158 °C | CC[C@@H](C1CC1)n1cc(Cl)nc(N2CCc3cc(OC)cc(C)c32)c1=O (as salt: hydrochloride) [Example 516, 5-Chloro-1-[(1S)-1-cyclopropylpropyl]-3-(5-methoxy-7-methyl-2,3-dihydro-1H-indol-1-yl)-2(1H)-pyrazinone]
102 to 104 °C | CC[C@H](COC)n1cc(Cl)nc(N2CCc3cc(OC)cc(Br)c32)c1=O (as salt: hydrochloride) [Example 523, 3-(7-Bromo-5-methoxy-2,3-dihydro-1H-indol-1-yl)-5-chloro-1-[(1R)-1-(methoxymethyl)propyl]-2(1H)-pyrazinone]
100 to 102 °C | CC[C@@H](COC)n1cc(Cl)nc(N2CCc3cc(OC)cc(Br)c32)c1=O (as salt: hydrochloride) [Example 529, 3-(7-Bromo-5-methoxy-2,3-dihydro-1H-indol-1-yl)-5-chloro-1-[(1S)-1-(methoxymethyl)propyl]-2(1H)-pyrazinone]
94 to 96 °C | COc1cc(C)c2c(c1)CCN2c1nc(Cl)cn(C(C(C)C)C(C)C)c1=O (as salt: hydrochloride) [Example 532]
111 to 113 °C | COc1cc(C)c2c(c1)CCN2c1nc(Cl)cn(CCSC)c1=O (as salt: hydrochloride) [Example 534, 5-Chloro-3-(5-methoxy-7-methyl-2,3-dihydro-1H-indol-1-yl)-1-[2-(methylthio)ethyl]-2(1H)-pyrazinone]
126 to 128 °C | CC[C@H](COC)n1cc(Cl)nc(N2CCc3cc(OC)cc(Cl)c32)c1=O (as salt: hydrochloride) [Example 544, 5-Chloro-3-(7-chloro-5-methoxy-2,3-dihydro-1H-indol-1-yl)-1-[(1R)-1-(methoxymethyl)propyl]-2(1H)-pyrazinone]
62 to 64 °C | CC[C@H](COC)n1cc(Cl)nc(N2CCc3cc(OC)cc(C)c32)c1=O (as salt: hydrochloride) [Example 545, 5-Chloro-3-(5-methoxy-7-methyl-2,3-dihydro-1H-indol-1-yl)-1-[(1R)-1-(methoxymethyl)propyl]-2(1H)-pyrazinone]
116 to 117 °C | CCC(CC)Nc1cc(N2CCc3cc(Cl)cc(Cl)c32)nc(C)n1 [Example 1, 4-(5,7-dichloro-2,3-dihydro-1H-indol-1-yl)-6-(1-ethylpropylamino)-2-methylpyrimidine]
132 to 134 °C | CCC(CC)Nc1nc(C)nc(N2CCc3cc(Cl)cc(Cl)c32)c1Cl [Example 2, 5-chloro-4-(5,7-dichloro-2,3-dihydro-1H-indol-1-yl)-6-(1-ethylpropylamino)-2-methylpyrimidine]
150 to 153 °C | CCC(COC)Nc1nc(C)nc(N2CCc3cc(OC)cc(Cl)c32)c1C=O (stereo not shown) [Example 76, 4-(7-chloro-5-methoxy-2,3-dihydro-1H-indol-1-yl)-5-formyl-6-[1-(1-methoxymethyl)propylamino]-2-methylpyrimidine]
